Legend:
[1] = Cytotoxicity against porcine PEK cells assessed as reduction in cell viability after 7 days by microscopic method; type: cell-based, Sus scrofa; conditions: pig
[2] = Cytotoxicity against porcine PEK cells assessed as reduction in cell viability after 24 hrs by microscopic method; type: cell-based, Sus scrofa; conditions: pig
[3] = test system: Tick-borne encephalitis virus; assay: microbe, parasite or virus in culture; type: functional, organism-based; conditions: PEK
[4] = Selectivity index, ratio of CC50 for porcine PEK cells assessed as reduction in cell viability after 24 hrs by microscopic method to EC50 for TBEV Absettarov infected in porcine PEK cells assessed as plaque reduction preincubated for 1 hr followed by overlaying with 1.26% methylcellulose and measured after 6 days by gentian violet staining-based assay; type: toxicity; conditions: pig, read-out: Ratio CC50/EC50

Row | SMILES | CC50 at 168 h [1] [µM] | CC50 at 24 h [2] [µM] | EC50 [3] [µM] | selectivity ratio at 24 h [4]
1 | CN(C)c1ccc(C#Cc2ccc3c4cccc5cccc(c6cccc2c63)c54)cc1 | > 100 | > 100 | 0.025 | 
2 | O=c1[nH]cc(C#Cc2ccc3c4cccc5cccc(c6cccc2c63)c54)c(=O)[nH]1 | 37 | > 100 | 0.008 | 
3 | O=C(O)c1ccc(-c2ccc3c4cccc5cccc(c6cccc2c63)c54)s1 | 26 | > 70 | 0.0016 | > 30000
4 | O=C(O)c1ccc2c3cccc4cccc(c5cccc1c52)c43 | 37 | > 50 | 0.037 | 
5 | O=C(c1ccc(-c2ccc3c4cccc5cccc(c6cccc2c63)c54)s1)N(CCO)CCO | > 70 | > 70 | 0.015 | 
6 | O=c1[nH]c(=O)n([C@@H]2O[C@H](CO)[C@@H](O)[C@H]2O)cc1C#Cc1ccc2c3cccc4cccc(c5cccc1c52)c43 | > 100 | > 100 | 0.0077 | 
7 | Cc1cc(O)c2c3c4c(cc(O)c13)C(C)(C)C(=O)c1c(O)cc(O)c(c1-4)C2=O [HELIOMYCIN] | 3.7 | 3.7 | 0.15 | 
8 | CC(=O)Nc1ccc(C#Cc2ccc3c4cccc5cccc(c6cccc2c63)c54)cc1 | > 100 | > 100 | 0.089 | 
9 | CCCCNC(=O)c1ccc(-c2ccc3c4cccc5cccc(c6cccc2c63)c54)s1 | > 100 | > 100 | 0.0039 | 
10 | O=c1[nH]c(=O)n([C@@H]2O[C@H](CO)[C@@H](O)[C@@H]2O)cc1C#Cc1ccc2c3cccc4cccc(c5cccc1c52)c43 | > 50 | > 50 |  | 
11 | CO[C@@H]1[C@H](O)[C@@H](CO)O[C@H]1n1cc(C#Cc2ccc3c4cccc5cccc(c6cccc2c63)c54)c(=O)[nH]c1=O | 38 | > 50 | 0.006 | 
12 | OC[C@H]1O[C@@H](n2cnc3c(NCc4c5ccccc5cc5ccccc45)ncnc32)[C@H](O)[C@@H]1O | > 50 | > 50 | 22 | 
13 | O=C(NCCCCO)c1ccc(-c2ccc3c4cccc5cccc(c6cccc2c63)c54)s1 | > 70 | > 70 | 0.009 | 
